Assay results as given in patent publication US20090264384A1, “INDOLE, BENZIMIDAZOLE, AND BENZOLACTAM BORONIC ACID COMPOUNDS, ANALOGS THEREOF AND METHODS OF USE THEREOF” (Nuada, Inc., priority 2004, published 2009).

Key:
D2S(h) = molecular target: T1, D2S(h) (Homo sapiens, UniProt P14416); test: biochemical; type: binding; details: 1.0E−05 M; read-out: % Inhibition of Control Specific Binding
T1 construct: expressed in transfected cells; host or cells: CHO cells

Phosphodiesterase 4(h) = Phosphodiesterase 4(h) enzyme assay; type: biochemical, human; details: 1.0E−05 M
Cl-channel = Cl-channel binding assay; parameters: species or system rat; details: 1.0E−05 M
CRF1 = molecular target: T2, CRF1 (Rattus norvegicus, UniProt P35353); test: CRF1 binding assay; details: read-out: % Inhibition of Control Specific Binding
T2 construct: from tissue; host or cells: rat pituitary gland

5-HT transporter(h) = molecular target: T3, 5-HT transporter(h) (Homo sapiens, UniProt P31645); test: 5-HT transporter(h) binding assay; details: read-out: % Inhibition of Control Specific Binding
T3 construct: expressed in transfected cells; host or cells: HEK-293 cells

[1] = molecular target: N (neuronal) (α-BGTX-insensitive) (Rattus norvegicus, UniProt P09483+P12390); test: N (neuronal) (α-BGTX-insensitive) binding assay; details: 1.0E−05 M; read-out: % Inhibition of Control Specific Binding
[2] = molecular target: T4, Phenylethanolamine-N-methyl transferase (Bos taurus, UniProt P10938); test: Phenylethanolamine-N-methyl transferase enzyme assay; type: biochemical, bovine; details: 1.0E−05 M
T4 construct: bovine adrenal; from tissue; host or cells: bovine adrenal medulla

Phosphodiesterase 3(h) = Phosphodiesterase 3(h) (Homo sapiens, UniProt Q14432); test: Phosphodiesterase 3(h) enzyme assay; type: biochemical; details: 1.0E−05 M
Progesterone(h) (PR) = Progesterone(h) (PR) binding assay; parameters: species or system human; details: 1.0E−05 M
CCKB(h) (CCK2) = molecular target: T5, CCKB(h) (CCK2) (Homo sapiens, UniProt P32239); test: CCKB(h) (CCK2) binding assay; details: read-out: % Inhibition of Control Specific Binding
T5 construct: expressed in transfected cells; host or cells: HEK-293 cells

LTD4(h) = molecular target: T6, LTD4(h) (Homo sapiens, UniProt Q9Y271); test: LTD4(h) binding assay; details: read-out: % Inhibition of Control Specific Binding
T6 construct: LTD4(h); U-937 cells; LTD4; Frey et al. (1993); endogenous in cells; host or cells: U-937 cells

ETB(h) = molecular target: T7, ETB(h) (Homo sapiens, UniProt P24530); test: ETB(h) binding assay; details: read-out: % Inhibition of Control Specific Binding
T7 construct: expressed in transfected cells; host or cells: CHO cells

M (non-selective) = M (non-selective) binding assay; parameters: species or system rat; details: 1.0E−05 M
A1(h) = molecular target: T8, A1(h) (Homo sapiens, UniProt P30542); test: A1(h) binding assay; details: 1.0E−05 M; read-out: % Inhibition of Control Specific Binding
T8 construct: expressed in transfected cells; host or cells: CHO cells

CB2(h) = molecular target: T9, CB2(h) (Homo sapiens, UniProt P34972); test: CB2(h) binding assay; details: 1.0E−05 M; read-out: % Inhibition of Control Specific Binding
T9 construct: expressed in transfected cells; host or cells: HEK-293 cells

[3] = molecular target: Ca^2+ channel (L, diltiazem site) (benzothiazepines) (Rattus norvegicus, UniProt P22002); test: Ca^2+ channel (L, diltiazem site) binding assay; details: read-out: % Inhibition of Control Specific Binding
α2 (non-selective) = α2 (non-selective) binding assay; parameters: species or system rat; details: 1.0E−05 M
MAO-A(h) = molecular target: T10, MAO-A(h) (Homo sapiens, UniProt P21397); test: MAO-A(h) enzyme assay; type: biochemical; details: 1.0E−05 M
T10 construct: human placenta; from tissue; host or cells: human placenta

D1(h) = molecular target: T11, D1(h) (Homo sapiens, UniProt P21728); test: D1(h) binding assay; details: read-out: % Inhibition of Control Specific Binding
T11 construct: expressed in transfected cells; host or cells: CHO cells

A2A(h) = molecular target: T12, A2A(h) (Homo sapiens, UniProt P29274); test: A2A(h) binding assay; details: 1.0E−05 M
T12 construct: expressed in transfected cells; host or cells: HEK-293 cells

Adenylyl cyclase (basal) = Adenylyl cyclase (basal) enzyme assay; type: biochemical, rat; details: 1.0E−05 M
Na^+ channel (site 2) = type: binding, rat; details: 1.0E−05 M
ORL1(h) (NOP) = molecular target: T13, ORL1(h) (NOP) (Homo sapiens, UniProt P41146); test: ORL1(h) (NOP) binding assay; details: 1.0E−05 M; read-out: % Inhibition of Control Specific Binding
T13 construct: expressed in transfected cells; host or cells: HEK-293 cells

H1(h) = molecular target: T14, H1(h) (Homo sapiens, UniProt P35367); test: biochemical; details: 1.0E−05 M; read-out: % Inhibition of Control Specific Binding
T14 construct: expressed in transfected cells; host or cells: HEK-293 cells

GABA transporter = GABA transporter (Rattus norvegicus, UniProt P23978); test: GABA transporter binding assay; details: 1.0E−05 M; read-out: % Inhibition of Control Specific Binding
[4] = tested on: Catechol-O-methyl transferase; test: Catechol-O-methyl transferase enzyme assay; type: biochemical, porcine; details: 1.0E−05 M
β1(h) = molecular target: T15, β1(h) (Homo sapiens, UniProt P08588); test: β1(h) binding assay; details: read-out: % Inhibition of Control Specific Binding
T15 construct: expressed in transfected cells; host or cells: HEK-293 cells

[5] = tested on: colitis provoked by trinitrobenzene sulphonic acid (TNBS); test: Rat model of colitis provoked by TNBS, 3 days, treatment from Day −1 (CCI-7308); type: in vivo; details: vs CMC group
Text: In the study, colonic macroscopic injury has been assessed, as has colonic weight as a reflection of colonic oedema, along with determination of MPO activity (Bradley et al, 1982) as an index of white cell infiltration for the evaluation of tissue injury. The methods and protocol used were substantially similar to those in Example 39, with some differences described below. TNBS Challenge—Male Wistar rats (270-330 g) were randomised into groups of 10-11 before commencement of the study. The following primary parameters were measured in the study: In addition, the weight of the colonic segment was assessed as an indirect and non-specific marker of oedema. The body weight of the animals was also determined and expressed as % change from the day of challenge. Treatments. All challenged groups were dosed orally twice daily from Day −1. The groups for study were: Colon homogenates for cytokine measurements. […] Tissue homogenates were lysed for 30 min. on ice, and then centrifuged (10 min., 14, 000×g). The aliquots of the supernatant were stored at −20° C. until use (Ten Hove et al., 2001). Tumour Necrosis Factor-a Activity. The TNF-α levels were determined with quantitative TNF-α solid-phase Enzyme Linked ImmunoSorbent Assay (ELISA), which is based on the sandwich principle (HyCult biotechnology b. V;. Cat number: […] At the end of the ELISA assay, the samples were measured spectrophotometrically (Benchmark Microplate reader, Bio-Rad Lab; λ=450 nm). The samples were diluted 2 or 4 times with the sample buffer included in the kit. The TNF-α values were expressed as pg/mg protein. This commercially available kit (Hycult Biotechnology b.v. Uden, The Netherlands. Catalogue number: […]

[6] = 50 mg/kg/day p.o. in divided doses

T10 sequence (P21397 whole entry): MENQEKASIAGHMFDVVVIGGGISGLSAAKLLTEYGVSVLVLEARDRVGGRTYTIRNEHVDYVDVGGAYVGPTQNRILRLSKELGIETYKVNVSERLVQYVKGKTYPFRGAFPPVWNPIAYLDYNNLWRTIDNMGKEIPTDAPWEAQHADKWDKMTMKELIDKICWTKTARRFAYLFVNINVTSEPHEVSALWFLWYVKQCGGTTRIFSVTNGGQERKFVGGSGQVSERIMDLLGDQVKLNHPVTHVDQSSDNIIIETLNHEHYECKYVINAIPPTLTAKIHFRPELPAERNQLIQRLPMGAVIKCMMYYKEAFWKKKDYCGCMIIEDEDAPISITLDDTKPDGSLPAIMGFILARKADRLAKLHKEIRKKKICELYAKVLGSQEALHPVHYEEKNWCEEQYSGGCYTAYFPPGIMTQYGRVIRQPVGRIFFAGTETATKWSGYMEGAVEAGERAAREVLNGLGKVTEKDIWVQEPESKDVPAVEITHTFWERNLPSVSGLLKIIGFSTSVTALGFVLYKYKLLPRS
Sequence of Phosphodiesterase 3(h) (Q14432 674-1093 limits assumed): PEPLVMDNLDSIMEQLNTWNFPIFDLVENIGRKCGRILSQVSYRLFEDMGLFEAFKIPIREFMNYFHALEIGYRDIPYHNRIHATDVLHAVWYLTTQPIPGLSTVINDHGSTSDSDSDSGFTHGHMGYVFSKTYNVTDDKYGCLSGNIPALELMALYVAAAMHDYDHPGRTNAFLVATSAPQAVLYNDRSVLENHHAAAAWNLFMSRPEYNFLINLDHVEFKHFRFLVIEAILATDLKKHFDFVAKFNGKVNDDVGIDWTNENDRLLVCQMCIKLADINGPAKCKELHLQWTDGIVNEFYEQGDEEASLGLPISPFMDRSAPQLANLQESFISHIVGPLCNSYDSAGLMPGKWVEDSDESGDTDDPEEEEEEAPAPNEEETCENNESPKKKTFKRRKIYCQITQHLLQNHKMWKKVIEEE
T7 sequence (P24530 27-442): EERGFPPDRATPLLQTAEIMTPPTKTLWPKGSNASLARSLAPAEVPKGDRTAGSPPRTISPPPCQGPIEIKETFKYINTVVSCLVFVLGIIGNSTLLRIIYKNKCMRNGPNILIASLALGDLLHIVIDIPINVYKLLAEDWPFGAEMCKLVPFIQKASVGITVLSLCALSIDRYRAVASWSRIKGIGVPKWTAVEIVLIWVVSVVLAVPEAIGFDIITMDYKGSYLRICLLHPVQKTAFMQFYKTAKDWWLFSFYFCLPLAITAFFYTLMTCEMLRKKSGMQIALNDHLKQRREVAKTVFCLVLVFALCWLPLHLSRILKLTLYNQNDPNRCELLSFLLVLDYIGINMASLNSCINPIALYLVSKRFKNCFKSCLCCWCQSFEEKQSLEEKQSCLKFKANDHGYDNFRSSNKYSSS
T14 sequence (P35367 whole entry): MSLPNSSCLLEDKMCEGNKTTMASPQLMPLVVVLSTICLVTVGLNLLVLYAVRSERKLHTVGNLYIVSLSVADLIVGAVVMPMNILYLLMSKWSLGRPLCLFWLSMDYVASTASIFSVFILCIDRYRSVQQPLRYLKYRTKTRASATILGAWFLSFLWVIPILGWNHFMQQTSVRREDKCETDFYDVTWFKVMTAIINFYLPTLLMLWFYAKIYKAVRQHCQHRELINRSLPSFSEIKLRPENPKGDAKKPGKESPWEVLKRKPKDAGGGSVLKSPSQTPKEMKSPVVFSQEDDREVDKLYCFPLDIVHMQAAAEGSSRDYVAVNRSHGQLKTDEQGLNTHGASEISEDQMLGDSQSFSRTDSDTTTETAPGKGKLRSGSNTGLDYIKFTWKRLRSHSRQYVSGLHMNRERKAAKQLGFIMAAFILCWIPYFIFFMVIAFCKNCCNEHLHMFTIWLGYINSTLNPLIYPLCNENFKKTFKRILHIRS
T11 sequence (P21728 whole entry): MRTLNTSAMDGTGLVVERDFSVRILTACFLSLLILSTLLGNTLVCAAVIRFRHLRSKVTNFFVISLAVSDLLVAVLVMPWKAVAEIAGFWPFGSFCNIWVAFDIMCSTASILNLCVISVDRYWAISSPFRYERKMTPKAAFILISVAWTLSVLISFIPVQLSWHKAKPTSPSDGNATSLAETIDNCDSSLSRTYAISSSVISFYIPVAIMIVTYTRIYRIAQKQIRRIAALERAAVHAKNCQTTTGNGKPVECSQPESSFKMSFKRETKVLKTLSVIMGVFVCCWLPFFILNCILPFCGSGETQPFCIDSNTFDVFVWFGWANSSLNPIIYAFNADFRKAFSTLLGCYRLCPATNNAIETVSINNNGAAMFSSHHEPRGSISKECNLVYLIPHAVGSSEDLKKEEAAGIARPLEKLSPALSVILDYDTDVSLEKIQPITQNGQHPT
T5 sequence (P32239 whole entry): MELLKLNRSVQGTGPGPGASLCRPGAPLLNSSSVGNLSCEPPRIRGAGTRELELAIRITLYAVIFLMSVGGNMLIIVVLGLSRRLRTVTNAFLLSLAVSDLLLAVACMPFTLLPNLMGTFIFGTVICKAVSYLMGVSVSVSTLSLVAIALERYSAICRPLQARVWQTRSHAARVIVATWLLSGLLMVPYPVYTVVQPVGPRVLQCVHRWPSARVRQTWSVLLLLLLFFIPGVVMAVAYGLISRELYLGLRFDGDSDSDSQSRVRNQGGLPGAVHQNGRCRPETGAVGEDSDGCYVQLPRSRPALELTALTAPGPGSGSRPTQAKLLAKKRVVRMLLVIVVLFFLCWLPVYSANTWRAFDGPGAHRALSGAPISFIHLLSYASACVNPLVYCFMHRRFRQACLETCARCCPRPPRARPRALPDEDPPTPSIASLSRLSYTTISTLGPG
Sequence of N (neuronal) (α-BGTX-insensitive) (P09483 31-630): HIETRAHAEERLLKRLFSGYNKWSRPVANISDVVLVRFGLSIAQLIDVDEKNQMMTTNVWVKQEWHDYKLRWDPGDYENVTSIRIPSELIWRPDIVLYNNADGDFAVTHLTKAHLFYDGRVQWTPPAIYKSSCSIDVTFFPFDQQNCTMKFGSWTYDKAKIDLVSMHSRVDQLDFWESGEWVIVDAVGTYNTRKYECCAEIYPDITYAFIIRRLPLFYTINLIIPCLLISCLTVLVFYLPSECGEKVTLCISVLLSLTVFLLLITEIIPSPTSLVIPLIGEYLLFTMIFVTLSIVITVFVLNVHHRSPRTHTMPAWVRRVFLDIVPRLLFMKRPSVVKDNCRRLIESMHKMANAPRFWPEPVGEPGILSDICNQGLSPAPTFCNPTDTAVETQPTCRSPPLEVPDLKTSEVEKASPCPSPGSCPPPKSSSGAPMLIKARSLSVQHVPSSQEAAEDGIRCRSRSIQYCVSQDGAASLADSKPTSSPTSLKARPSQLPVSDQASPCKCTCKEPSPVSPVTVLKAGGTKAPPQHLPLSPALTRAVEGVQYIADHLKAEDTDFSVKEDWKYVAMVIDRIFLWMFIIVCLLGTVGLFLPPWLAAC
Sequence of N (neuronal) (α-BGTX-insensitive) (P12390 25-500): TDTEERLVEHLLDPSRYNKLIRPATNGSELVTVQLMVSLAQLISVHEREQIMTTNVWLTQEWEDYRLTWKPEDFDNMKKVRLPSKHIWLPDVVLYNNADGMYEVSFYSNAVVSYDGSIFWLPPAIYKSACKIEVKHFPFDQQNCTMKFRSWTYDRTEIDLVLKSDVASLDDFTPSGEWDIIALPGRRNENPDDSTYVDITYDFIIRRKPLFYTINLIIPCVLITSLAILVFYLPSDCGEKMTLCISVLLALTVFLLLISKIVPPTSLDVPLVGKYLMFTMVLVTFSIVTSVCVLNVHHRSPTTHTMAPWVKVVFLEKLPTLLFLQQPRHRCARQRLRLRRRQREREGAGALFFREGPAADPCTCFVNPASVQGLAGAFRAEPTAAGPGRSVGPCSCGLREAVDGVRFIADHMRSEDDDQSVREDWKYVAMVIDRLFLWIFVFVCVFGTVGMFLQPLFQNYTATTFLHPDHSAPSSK
T12 sequence (P29274 whole entry): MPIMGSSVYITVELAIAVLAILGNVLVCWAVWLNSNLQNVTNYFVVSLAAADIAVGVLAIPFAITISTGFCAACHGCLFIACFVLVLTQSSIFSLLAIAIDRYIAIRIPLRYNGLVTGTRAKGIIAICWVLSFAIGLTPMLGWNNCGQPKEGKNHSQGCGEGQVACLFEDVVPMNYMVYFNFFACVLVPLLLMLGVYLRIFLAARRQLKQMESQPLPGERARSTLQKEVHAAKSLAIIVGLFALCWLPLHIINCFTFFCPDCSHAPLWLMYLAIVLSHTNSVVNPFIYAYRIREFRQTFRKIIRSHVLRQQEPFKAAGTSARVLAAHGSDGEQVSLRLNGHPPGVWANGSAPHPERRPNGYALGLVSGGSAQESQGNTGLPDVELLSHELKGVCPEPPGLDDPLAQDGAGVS

Structure (SMILES): N#Cc1ccc2c(ccn2CCCCCB(O)O)c1 [Example 20, 5-(5-cyano-1H-indol-1-yl)pentylboronic acid]
- inhibition at 10 µM (D2S(h)): 23%
- % Inhibition of Control Values (Phosphodiesterase 4(h)): 91%
- % Inhibition of Control Specific Binding (Cl-channel): 26%
- inhibition at 10 µM (CRF1): -23%
- inhibition at 10 µM (5-HT transporter(h)): 90%
- inhibition at 10 µM [1]: 12%
- % Inhibition of Control Values [2]: 1%
- % Inhibition of Control Values (Phosphodiesterase 3(h)): 95%
- % Inhibition of Control Specific Binding (Progesterone(h) (PR)): 79%
- inhibition at 10 µM (CCKB(h) (CCK2)): 5%
- inhibition at 10 µM (LTD4(h)): 12%
- inhibition at 10 µM (ETB(h)): 10%
- % Inhibition of Control Specific Binding (M (non-selective)): −4%
- inhibition at 10 µM (A1(h)): 7%
- inhibition at 10 µM (CB2(h)): -12%
- inhibition at 10 µM [3]: -1%
- % Inhibition of Control Specific Binding (α2 (non-selective)): 7%
- % Inhibition of Control Values (MAO-A(h)): 6%
- inhibition at 10 µM (D1(h)): 0%
- % Inhibition of Control Specific Binding (A2A(h)): 16%
- % Stimulation Relative to Control (Adenylyl cyclase (basal)): −3%
- % Inhibition of Control Specific Binding (Na^+ channel (site 2)): 13%
- inhibition at 10 µM (ORL1(h) (NOP)): 0%
- inhibition at 10 µM (H1(h)): 6%
- inhibition at 10 µM (GABA transporter): -13%
- % Inhibition of Control Values [4]: −5%
- inhibition at 10 µM (β1(h)): 7%

Structure (SMILES): O=C(O)c1cc(/N=N/c2ccc(S(=O)(=O)Nc3ccccn3)cc2)ccc1O [sulfasalazine, reference compound]
- attenuation of TNBS-induced fall in body weight (% change in body weight at Day 0) ([5]; 50 mg/kg/day p.o. in divided doses b.i.d.): reached statistical significance at Day 1, 2 and 3
- reduction in area of macroscopic colonic injury ([5]; 50 mg/kg/day p.o. in divided doses, 72 h after TNBS): significantly (P<0.001) reduced the extent of macroscopic injury
- reduction in colon weight [5, 6]: significant (P<0.05) reduction in colon weight
- reduction in colonic MPO activity [5, 6]: significantly reduced the elevated colonic levels of MPO
- reduction in colonic TNF-α levels [5, 6]: significantly reduced the elevated colonic levels of TNF-α
